In data set [1] the test system is NAMEC cells. Nature of the data set: Treatment of NAMEC cells with cAMP analogs (PKA versus EPAC), morphology. In kind it is cell-based, human. Particulars: treatment for 12 days, data not shown.
Data set [2] deals with NAMEC cells. The class given is cell-based, human. Particulars: for susceptibility to inhibition by the drug, in contrast to untreated NAMEC cells: NAMEC cells treated with cholera toxin, FIGS. 8A and 8B.
The subject of data set [3] is HMLE cells. Nature of the data set: Dose response to chemotherapeutic drugs, HMLE cells. In kind it is cell-based, human. Particulars: dose response curves FIGS. 8A and 8B.
The subject of data set [4] is NAMEC cells. In kind it is cell-based, human.
For data set [5] the following is noted: 5 mg/kg, previously tested in vivo in mice; cited from earlier work.
The subject of data set [6] is E-cadherin/CDH1 promoter. The class given is cell-based, human.
The subject of data set [7] is NAMEC cells. In kind it is cell-based, human. This is another data set of the same source.
Data set [8] has as its system NAMEC cells. In kind it is cell-based, human. This is another data set of the same source.
The subject of data set [9] is NAMEC cells. In kind it is cell-based, human. This is another data set of the same source.
The subject of data set [10] is NAMEC cells. In kind it is cell-based, human. The source holds these as a separate data set.

Read-outs that look alike come from different tables or passages of the source.

As to `Nc1ncnc2c1nc(Br)n2[C@@H]1O[C@@H]2COP(=O)(O)O[C@H]2[C@H]1O` [8-Br-cAMP], the “epithelial morphologies displayed by NAMEC cells” value in data set [1] was “displayed epithelial morphologies”.

With `COc1cccc2c1C(=O)c1c(O)c3c(c(O)c1C2=O)C[C@@](O)(C(=O)CO)C[C@@H]3O[C@H]1C[C@H](N)[C@H](O)[C@H](C)O1` [doxorubicin], in data set [2], the “susceptibility to inhibition by the drug” value is given as “highly resistant” and the “susceptibility to inhibition by the drug, in contrast to untreated NAMEC cells” value is “more susceptible”. Moreover, the “susceptibility to inhibition by the drug” value in [3] is “susceptible”.

In the case of `C=C[C@@]1(C)CC(=O)[C@]2(O)[C@@]3(C)[C@@H](O)CCC(C)(C)[C@@H]3[C@H](O)[C@H](OC(C)=O)[C@@]2(C)O1` [forskolin], the “cells expressing the SC-like CD44hiCD24lo marker profile reverted to the non-SC CD44loCD24hi profile” value in [4] (NAMEC cells, 100 μg/ml cholera toxin or 10 μM forskolin over 12 days, flow cytometry) was 95%. The “toxicities / side-effects in mice” value in data set [5] is reported as “no reported side-effects”. Also, in data set [6], the “induce transcription of the E-cadherin reporter compared to the control after normalization to cell number” value was determined as 40 fold; the “relative CDH1 Promoter luciferase activity normalized by cells number: differential activity between non-CSCs and CSC” value was “around 40 fold”.

Take `CC(=O)O[C@H]1C(=O)[C@@]2(C)[C@H]([C@H](OC(=O)c3ccccc3)[C@]3(O)C[C@H](OC(=O)[C@H](O)[C@@H](NC(=O)c4ccccc4)c4ccccc4)C(C)=C1C3(C)C)[C@]1(OC(C)=O)CO[C@@H]1C[C@@H]2O` [paclitaxel]: in data set [2], the “susceptibility to inhibition by the drug” value is “highly resistant” and the “susceptibility to inhibition by the drug, in contrast to untreated NAMEC cells” value is listed as “more susceptible”. Moreover, the “susceptibility to inhibition by the drug” value in data set [3] is listed as “susceptible”.

As for cholera toxin, in data set [7], the “intracellular cAMP concentration in NAMEC cells” value is listed as “elevated”. Also, the “susceptibility of NAMEC cells to doxorubicin and paclitaxel after induction of MET” value in data set [2] is recorded as “more susceptible”. Also, in data set [4], the “cell morphology after treatment” value was “cobblestone-like epithelial morphology”; the “cells expressing the SC-like CD44hiCD24lo marker profile reverted to the non-SC CD44loCD24hi profile” value amounted to 95%; the “junctional E-cadherin by fluorescent microscopy” value is recorded as “expressed junctional E-cadherin”; the “mesenchymal marker fibronectin by fluorescence microscopy” value is reported as “loss of the mesenchymal marker, fibronectin”. The mammosphere-forming ability result in [8] is given as “complete loss”. For the same compound, in [9], the “invasive properties of NAMEC cells” value is given as “loss” and the “migratory properties of NAMEC cells” value is “loss”. Also, the “ability to induce luciferase expression (validation of the screen)” value in [6] is recorded as “induce luciferase expression”. Further, in [10], the “E-cadherin expression compared to untreated NAMEC cells” value is listed as “gain of E-cadherin expression” and the “relative expression of mesenchymal markers compared to untreated NAMEC cells” value is “decrease”.
